From EP1038864A1, “NOVEL METALLOPROTEINASE INHIBITORS” (FUJI YAKUHIN KOGYO KABUSHIKI KAISHA, priority 1997, dated 1999) come the findings set out here.

A word on the AUC: it is concentration integrated over time. Read a low AUC as less exposure.

The conditions of data set [1]: rat, in vivo, po, 100 mg/kg, 4 h.
Description: (§2) Each compound of the present invention was dissolved in distilled water for injection and orally administered to rats (Lewis strain line, male, body weight: about 200 g) at a dose of 100mg/kg. From 30 minutes to 4 hours after the administration, a series of blood chronologically collected from rat fundus oculi were centrifuged (3000rpm for 10 minutes at 4°C) to give plasma samples. Each plasma sample (200 µl) was filtered through an ultrafiltration membrane by centrifugation at 1500 x G for 3 minutes using a micropartition UF unit (Centrifree-MPS-3: 30,000 MW cut-off, Amicon Corp., Beverly, MA). […] The reaction was stopped by adding 900 µl of 3% aqueous acetic acid to the reaction mixture. The fluorescence of the resulting solution was read using an excitation wavelength of 325 nm and an emission wavelength of 393 nm. The concentration of each test compound in rat plasma samples was calculated using a standard curve which was prepared based on a variety of doses.
A short description of data set [2]: Assay for Oral Absorption in Rat (plasma level by MMP-3 inhibition bioassay). The following applies: for AUC: male, Lewis.
Description: as §2
Data set [3] concerns the target human fibroblast stromelysin (Homo sapiens, UniProt P08254). The data set is described as follows: Assay for inhibition of stromelysin (fluorescein-labeled casein substrate). It is filed as biochemical. As to the method:
(§1) Described below are assays for biological activities of the compounds according to the present invention, formulations, dosage forms and dosage levels thereof, and miscellaneous matters. The efficacy of the compounds represented by the formula (I) according to the present invention as inhibitors of human fibroblast collagenase (metalloproteinase involved in the breakdown of tissues) is determined by a procedure based on the method of Y. Murawaki et al., Journal of Hepatology, 18, p328-334 (1993). The efficacy of the compounds (I) of this invention as inhibitors of human fibroblast stromelysin is determined by a procedure based on the method of S. S. Twining, Anal. Biochem., 143, p30 (1984). The assay results obtained are shown hereinbelow, together with biological examples which illustrate embodiments of the assay protocols.
The efficacy of compounds of the present invention to act as inhibitors of human fibroblast stromelysin was determined by the procedure of Twining (Anal. Biochem., 143, p.30, 1984), compared with a reference compound.
Prostromelysin was activated by incubation with 20 µg/ml human plasmin at 37°C for 2 hours, and the reaction was stopped by addition of 2.8 mg/ml aqueous diisopropyl fluorophosphate. The inhibition was assayed using, as a substrate, fluorescein-labeled casein. To a solution of the substrate (1 mg/ml) in a 50 mM Tris-HCl buffer, pH 7.8, containing 10mM aqueous calcium chloride was added the activated stromelysin. The resultant solution was incubated at 37°C for 2 hours. The digestion of the substrate with the enzyme was stopped by addition of 5% trichloroacetic acid. Undigested substrates were precipitated by centrifugation at 3000 x g for 20 minutes. The supernatant was collected, followd by additon of a 0.5M Tris-HCl buffer, pH 8.5. The fluorescence was read using an excitation wavelength of 495 nm and an emission wavelength of 520 nm. The inhibitory potency of the compounds was calculated. […] The resulting assay data for representative examples are shown in Table 2, compared with the reference compound.

The target of a further data set is TNF-α Convertase (Homo sapiens, UniProt P78536). Description: Assay for inhibition of TNF-α production in LPS-stimulated, PMA-differentiated U937 cells.
Sequence of TNF-α Convertase (P78536 215-824): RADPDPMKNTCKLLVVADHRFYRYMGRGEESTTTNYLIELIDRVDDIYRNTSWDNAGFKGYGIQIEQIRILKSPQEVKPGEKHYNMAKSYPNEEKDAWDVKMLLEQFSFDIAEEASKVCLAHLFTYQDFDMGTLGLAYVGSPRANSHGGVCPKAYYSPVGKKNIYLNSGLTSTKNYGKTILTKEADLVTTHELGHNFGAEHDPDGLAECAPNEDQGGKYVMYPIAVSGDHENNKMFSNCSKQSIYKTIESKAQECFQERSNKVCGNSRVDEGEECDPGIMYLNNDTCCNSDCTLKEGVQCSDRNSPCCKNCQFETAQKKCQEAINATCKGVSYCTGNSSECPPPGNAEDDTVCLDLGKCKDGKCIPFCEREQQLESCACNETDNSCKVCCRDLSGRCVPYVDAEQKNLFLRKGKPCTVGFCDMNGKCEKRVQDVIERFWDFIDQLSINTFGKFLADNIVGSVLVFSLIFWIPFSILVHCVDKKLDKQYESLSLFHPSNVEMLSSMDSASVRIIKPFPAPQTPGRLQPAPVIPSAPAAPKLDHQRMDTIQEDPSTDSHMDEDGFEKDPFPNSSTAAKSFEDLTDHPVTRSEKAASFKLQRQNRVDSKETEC
Another data set in a line: in vivo. The following applies: rat, po, 100 mg/kg.
Data set [4] concerns the target T1, human fibroblast collagenase (Homo sapiens, UniProt P03956).
T1 sequence (P03956 100-469): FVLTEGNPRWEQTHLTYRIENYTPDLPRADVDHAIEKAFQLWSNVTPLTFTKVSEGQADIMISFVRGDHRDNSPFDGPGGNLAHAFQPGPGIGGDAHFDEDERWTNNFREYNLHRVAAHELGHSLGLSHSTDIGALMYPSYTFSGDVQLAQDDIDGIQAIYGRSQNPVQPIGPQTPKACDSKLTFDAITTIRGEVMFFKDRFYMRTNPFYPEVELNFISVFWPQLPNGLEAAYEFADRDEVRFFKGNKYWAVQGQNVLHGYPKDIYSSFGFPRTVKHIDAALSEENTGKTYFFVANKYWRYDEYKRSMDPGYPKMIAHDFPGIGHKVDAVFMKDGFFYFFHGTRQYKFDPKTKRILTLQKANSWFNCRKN
Description: Assay for inhibition of collagenase (fluorescein-labeled bovine type I collagen substrate). The following applies: activated human fibroblast procollagenase, 35°C, 2 hours, pH 7.5; read-out: Inhibition of MMP-1. Format: biochemical. On the procedure:
as §1
The efficacy of compounds of the present invention to act as inhibitors of human fibroblast collagenase was determined by the procedure of Y. Murawaki et al. (Journal of Hepatology, 18, p.328-334, 1993), compared with a reference compound.
Procollagenase was activated by incubation with 2 mM 4-aminophenylmercuric acetate (APMA) at 35°C for 2 hours. The inhibition was assayed using, as a substrate, fluorescein-labeled bovine type I collagen. To a solution of the substrate (0.5 mg/ml) in a 50 mM Tris-HCl buffer, pH 7.5, containing 0.4M aqueous sodium chloride and 10 mM aqueous […] was added the activated collagenase. The resultant solution was incubated at 35°C for 2 hours. The digestion of the substrate with the enzyme was stopped by addition of 80 mM o-phenanthroline, followed by addition of a porcine elastase solution formed by dissolving 25 µg/ml porcine elastase in the aforementioned Tris-HCl buffer. The mixture was incubated at 37°C for 10 minutes. To the resulting solution was added 70% ethanol, and a 170 mM Tris-HCl buffer, pH 9.5, containing 0.67M aqueous sodium chloride. Undigested substrates were precipitated by centrifugation at 3000 x g for 20 minutes. The supernatant was collected and the fluorescence was read using an excitation wavelength of 495 nm and an emission wavelength of 520 nm. The inhibitory potency of the compounds was calculated. […] The resulting assay data for representative examples are shown in Table 1, compared with the reference compound. […]

The mark [5] stands for this setting: plasmin-activated human fibroblast prostromelysin, 37°C, 2 hours, pH 7.8, read-out: Inhibition of MMP-3.

Like-named read-outs stand apart in the source and are kept apart here.

Sequence of human fibroblast stromelysin (P08254 100-477): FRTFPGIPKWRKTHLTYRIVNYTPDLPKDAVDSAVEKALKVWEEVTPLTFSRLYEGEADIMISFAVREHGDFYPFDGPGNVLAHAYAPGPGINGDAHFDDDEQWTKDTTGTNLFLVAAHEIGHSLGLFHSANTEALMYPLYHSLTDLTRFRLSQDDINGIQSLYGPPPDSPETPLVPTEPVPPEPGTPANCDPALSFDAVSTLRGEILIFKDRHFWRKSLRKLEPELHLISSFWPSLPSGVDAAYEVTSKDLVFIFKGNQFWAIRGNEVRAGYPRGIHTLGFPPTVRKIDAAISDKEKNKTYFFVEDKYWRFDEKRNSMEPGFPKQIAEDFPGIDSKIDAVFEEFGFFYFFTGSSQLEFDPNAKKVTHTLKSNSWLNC
Description for TNF-α Convertase: Human monocytic leukemia cell line U937 (human histiocytic lymphoma cell line U937) cells were cultured in RPMI 1640 (Nissui Pharmaceutical Co., Ltd., Japan) supplemented with 5% fetal calf serum (FCS; IBL, Japan) in an incubator at 37°C under 5% CO2, then transferred to multiplates at a density of 1 x 10^6 cells/1 ml/well, and incubated overnight in the presence of 10^-7 M phorbol 12-myristate 13-acetate (Wako Pure Chemical Industries, Ltd., Japan) to form differentiated macrophage-like cells. To the resultant cells was added E. coli O127:B8 lipopolysaccaride (LPS, 0.1 µg/ml; Sigma) alone or along with each compound of the present invention, and the treated cells were then incubated for 6 hours in an incubator under 5% CO2 at 37°C. After the incubation, the cultures were collected and centrifuged at 3000 rpm for 10 minutes to give supernatants which were diluted with purified water and then assayed using a TNF-α assay kit, Genzyme (Table 3).
Description for in vivo: as §2

Regarding `CC(=N)NCCCC[C@H](NC(=O)[C@H](CC(C)C)C(C)C(=O)NO)C(=O)NC(C)CO.CC(=O)O` (mixture of isomers) [Compound No. 39, N^a-[4-(Hydroxyamino)-2(R)-isobutyl-3(RS)-methylsuccinyl]-N^e-acetimidoyl-L-lysine N-[2-hydroxy-1(RS)-methylethyl]amide · 1 acetate], in data set [1], the AUC0.5-4 was found to be 14996 ng·h/mL.

The compound `CC(=O)O.CCC(=N)NCCCC[C@H](NC(=O)[C@H](CC(C)C)C(C)C(=O)NO)C(=O)NC` (mixture of isomers) [Compound No. 45, N^a-[4-(Hydroxyamino)-2(R)-isobutyl-3(RS)-methylsuccinyl]-N^e-propionimidoyl-L-lysine N-methylamide · 1 acetate] returned an AUC0.5-4 in data set [2] (rats (Lewis, male), orally, 100mg/kg, 0.5 to 4 hours after administration) of 7067 ng·h/mL.

`CNC(=O)C(Cc1ccc(CNC(C)=N)cc1)NC(=O)C(CC(C)C)C(C)C(=O)NO` (single isomer, unassigned) [Compound No. 41, N^a-[4-(Hydroxyamino)-2(R)-isobutyl-3(R or S)-methylsuccinyl]-4'-acetimidoyliminomethyl-L-phenylalanine N-methylamide · 1 acetate]: the IC50 in data set [3] (setting [5]) came to 18 nM; against TNF-α Convertase, 1010 nM. The compound further gave an AUC in data set [2] (rat, po, 100 mg/kg) of 3130 ng·h/mL.

For the compound `CC(=N)NCc1ccc(CC(NC(=O)C(CC(C)C)C(C)C(=O)NO)C(=O)NN2CCOCC2)cc1` (single isomer, unassigned) [Compound No. 42, N^a-[4-(Hydroxyamino)-2(R)-isobutyl-3(R or S)-methylsuccinyl]-4'-acetimidoyliminomethyl-L-phenylalanine N-(morpholin-4-yl)-amide · 1 acetate], the IC50 in data set [3] (setting [5]) is 24 nM. In data set [2] (rat, po, 100 mg/kg), this compound came in with an AUC of 6260 ng·h/mL.

In data set [1], `CC(=O)O.CC(=O)O.CNC(=O)[C@H](CCCN)NC(=O)[C@H](CC(C)C)C(Cc1ccc(CN)cc1)C(=O)NO` (single isomer, unassigned) [Compound No. 48, N^a-[4-(Hydroxyamino)-2(R)-isobutyl-3(R or S)-(p-aminomethylbentyl)succinyl]-L-ornithine N-methylamide· 2 acetate] had an AUC0.5-4 of 20203 ng·h/mL.

As to `CC(=O)O.CC(=O)O.CNC(=O)[C@H](Cc1ccc(CN)cc1)NC(=O)[C@H](CC(C)C)C(Cc1ccc(CN)cc1)C(=O)NO` (single isomer, unassigned) [Compound No. 49, N^a-[4-(Hydroxyamino)-2(R)-isobutyl-3(R or S)-(p-aminomethylbenzyl)succinyl]-4'-aminomethyl-L-phenylalanine N-methylamide · 2 acetate], the AUC0.5-4 in data set [1] worked out at 15292 ng·h/mL.

`CC(=O)O.CNC(=O)[C@H](C)NC(=O)[C@H](CC(C)C)C(Cc1cccc(CN)c1)C(=O)NO` (single isomer, unassigned) [Compound No. 53, N^a-[4-(Hydroxyamino)-2(R)-isobutyl-3(R or S)-(m-aminomethylbenzyl)succinyl]-L-alanine N-methylamide · 1 acetate]: the AUC0.5-4 in data set [1] worked out at 4816 ng·h/mL.

Turning to `CNC(=O)[C@H](CCCCN)NC(=O)[C@H](C(C)C)C(CCCc1ccccc1)C(=O)NO` (single isomer, unassigned) [Compound No. 74, N^a-[4-(Hydroxyamino)-2(R)-isopropyl-3(R or S)-(3-phenylpropyl)succinyl]-L-lysine N-methylamide· 1 acetate], the IC50 is 62 nM in data set [3] (read-out: Inhibition of MMP-3, plasmin-activated human fibroblast prostromelysin, 37°C, 2 hours, pH 7.8) and 603 nM on TNF-α Convertase (read-out: Inhibition of TACE, U937 cells, LPS 0.1 µg/ml, 6 hours, TNF-α in supernatant by assay kit). Moreover, the AUC at 4 h in the data set “in vivo” stood at 9020 ng·h/mL.

Turning to `CNC(=O)C(CCCCNC(C)=N)NC(=O)C(CC(C)C)C(C)C(=O)NO` [Compound No. 22, N^a-[4-(Hydroxyamino)-2(R)-isobutyl-3(RS)-methylsuccinyl]-N^e-acetimidoyl-L-lysine N-methylamide · 1 acetate], the AUC at 4 h in data set [2] (rat, po, 100 mg/kg) came to 9130 ng·h/mL. The same compound displayed an IC50 on TNF-α Convertase of 2080 nM.

On to `CNC(=O)C(Cc1ccc(CN)cc1)NC(=O)C(CC(C)C)C(C)C(=O)NO` [Compound No. 23, N^a-[4-(Hydroxyamino)-2(R)-isobutyl-3(RS)-methylsuccinyl]-4'-aminomethyl-L-phenylalanine N-methylamide · 1 acetate], for which the results for the IC50 (in data set [3]; on TNF-α Convertase) were 16 nM and 1190 nM, respectively. In “in vivo”, the exposure (AUC) at 4 h is 4760 ng·h/mL.

Turning to `CC(=O)O.CNC(=O)[C@H](Cc1ccc(CNC(C)=N)cc1)NC(=O)[C@H](CC(C)C)[C@H](O)C(=O)NO` [Compound No. 43, N^a-[4-(Hydroxyamino)-2(R)-isobutyl-3(S)-hydroxysuccinyl]-4'-acetimidoyliminomethyl-L-phenylalanine N-methylamide · 1 acetate], in data set [1], the AUC0.5-4 is 3289 ng·h/mL.

Regarding `CC(=N)NCCCCC(NC(=O)C(CC(C)C)C(CCCc1ccccc1)C(=O)NO)C(=O)NCCN(C)C` [Compound No. 44, N^a-[4-(Hydroxyamino)-2(R)-isobutyl-3(RS)-(3-phenylpropyl)-succinyl]-N^e-acetimidoyl-L-lysine N-(2-N',N'-dimethylaminoethyl)amide · 2 acetate], the IC50 is 17 nM in data set [3] and 129 nM on TNF-α Convertase. For the same compound, the AUC at 4 h in the data set “in vivo” came out at 1930 ng·h/mL.

As to `CNC(=O)C(CCCN)NC(=O)C(CC(C)C)C(CCCc1ccc(NC(=N)N)cc1)C(=O)NO` [Compound No. 46, N^a-[4-(Hydroxyamino)-2(R)-isobutyl-3(RS)-[3-(4'-guanidinophenyl)propyl]succinyl]-L-ornithine-N-methylamide · 2 acetate], the IC50 in data set [4] was found to be 15 nM; in data set [3] (setting [5]) it was 42 nM; against TNF-α Convertase, 460 nM. The compound also showed an AUC in data set [2] (rat, po, 100 mg/kg) of 3380 ng·h/mL.

On to “N^a-[4-(Hydroxyamino)-2(R)-isobutyl-3(R or S)-[5-(isopropylimino)pentyl]succinyl]-L-alanine N-methylamide [Compound No. 63]”, for which the AUC0.5-4 in data set [1] amounted to 5662 ng·h/mL.
